The results in this text go back to patent US10800778B2 (Entasis Therapeutics Limited, priority 2016, dated 2020).

SMILES strings stand for the structures. Counter-ions that a name gives are not always drawn.

In assay [1] the target is TEM-1 (Class A beta-lactamase) (Escherichia coli, UniProt P62593). Briefly: Inhibition of beta-lactamase enzymes (nitrocefin hydrolysis), TEM-1. The assay is classed as biochemical. To be noted: read-out: Class A TEM-1 60 min IC50, nitrocefin 100 μM. The procedure:
(§1) A buffer consisting of 0.1 M sodium phosphate (pH 7.0), 10 mM NaHCO3, and 0.005% Triton X-100 was used for all enzymes. The chromogenic substrate nitrocefin (SynGene, Bangalore, India) was used at 100 μM. Enzyme activity was monitored by the 490 nm absorbance increase upon nitrocefin hydrolysis. Assays were performed in clear polystyrene 384-well plates (Greiner Bio-One, Monroe, N.C.). Absorbance was measured for 1 hour at 30-s intervals using a Spectramax absorbance plate reader (Molecular Devices, Sunnyvale, Calif.). Measurement of beta-lactamase inhibition by INHIBITOR employed serial 3-fold dilutions of the inhibitor in assay buffer, ranging from 100 μM to 62.7 pM. A background absorbance progress curve for a control lacking enzyme and inhibitor was subtracted from each progress curve.
(§2) The complete set of progress curves for one enzyme with all inhibitor concentrations was subjected to numerical integration with the program Kintek Global Kinetic Explorer (Kintek Corp, Snowshoe Pa.) to obtain a best-fit to the mechanism shown in Scheme 10.
(§3) where E, S, ES, P, I, and EI are the concentrations of the enzyme, nitrocefin, the enzyme-nitrocefin complex, the nitrocefin hydrolysis product, INHIBITOR, and the enzyme-INHIBITOR complex respectively. […] The values of k+2, k+3, and k−3 were fit. Concentration series offsets of the absorbance measurements were used to correct for slight absorbance baseline differences between wells. The parameter k+3 is equivalent to the second order rate constant kinact/Ki. In some cases, the inhibition was in rapid equilibrium on the experimental time scale, so that only the ratio k−3/k+3=Ki could be determined. Although k−3 represents reversal of inhibitor binding in Scheme 10, hydrolysis of the enzyme-inhibitor complex could not be excluded based on kinetic measurements.
(§4) Best-fit absorbance values from the above procedure at each time point for each compound concentration were exported to Excel.
(§5) where A is the best-fit absorbance without inhibitor and Ainhib is the best-fit absorbance in the presence of the inhibitor.
(§6) where [I] is the inhibitor concentration and n is the Hill coefficient. The Excel add-in XLfit (ID Business Solutions) was used for nonlinear regression.

For assay [2], the target named is OXA-48 (Class D beta-lactamase) (Klebsiella pneumoniae, UniProt Q6XEC0). Briefly: Inhibition of beta-lactamase enzymes (nitrocefin hydrolysis), OXA-48. It counts as biochemical. To be noted: read-out: Class D OXA-48 60 min IC50, nitrocefin 100 μM. The procedure: as §1, §2, §3, §4, §5, §6
OXA-48 (Class D beta-lactamase), sequence (Q6XEC0 whole entry, looked up, species assumed): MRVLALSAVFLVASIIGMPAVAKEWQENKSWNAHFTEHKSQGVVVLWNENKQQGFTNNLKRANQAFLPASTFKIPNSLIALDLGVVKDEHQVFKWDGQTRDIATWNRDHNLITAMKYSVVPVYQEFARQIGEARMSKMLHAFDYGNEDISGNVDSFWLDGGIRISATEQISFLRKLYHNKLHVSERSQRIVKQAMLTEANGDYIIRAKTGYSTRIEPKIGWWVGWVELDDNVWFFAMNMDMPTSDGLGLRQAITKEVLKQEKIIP

TEM-1 (Class A beta-lactamase), sequence (P62593 whole entry, looked up, species assumed): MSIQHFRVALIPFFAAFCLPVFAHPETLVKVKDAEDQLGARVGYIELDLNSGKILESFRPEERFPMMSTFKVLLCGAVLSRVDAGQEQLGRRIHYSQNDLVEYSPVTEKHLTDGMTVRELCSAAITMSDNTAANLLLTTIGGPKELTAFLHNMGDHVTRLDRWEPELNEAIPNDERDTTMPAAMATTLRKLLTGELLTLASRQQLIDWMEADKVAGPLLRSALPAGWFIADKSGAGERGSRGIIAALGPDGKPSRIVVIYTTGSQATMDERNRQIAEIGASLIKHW

Take `CC1=C[C@@H]2CN(C(=O)N2OC(F)C(=O)O)[C@@H]1C(N)=O` (mixture of isomers) [Example 5, {[(2S,5R)-2-carbamoyl-3-methyl-7-oxo-1,6-diazabicyclo[3.2.1]oct-3-en-6-yl]oxy}(fluoro)acetic acid lithium salt (mixture of diastereomers)]: the IC50 was 4.4 nM in assay [1] and 17 nM in assay [2].

On to `CC1=C[C@@H]2CN(C(=O)N2OC(C)(F)C(=O)O)[C@@H]1C(N)=O` (mixture of isomers) [Example 11, 2-{[(2S,5R)-2-carbamoyl-3-methyl-7-oxo-1,6-diazabicyclo[3.2.1]oct-3-en-6-yl]oxy}-2-fluoropropanoic acid lithium salt (mixture of diastereomers)], for which the 50% inhibitory concentration (IC50) was 230 nM in assay [1] and 22000 nM in assay [2].

On to `NC(=O)[C@@H]1C(C2CC2)=C[C@@H]2CN1C(=O)N2OC(F)C(=O)O` (stereo in doubt) [Example 42, (2R)-2-(((2S,5R)-2-carbamoyl-3-cyclopropyl-7-oxo-1,6-diazabicyclo[3.2.1]oct-3-en-6-yl)oxy)-2-fluoroacetic acid lithium salt], for which the IC50 was 24 nM in assay [1] and 5.2 nM in assay [2].

Consider `NC(=O)[C@@H]1CC[C@@H]2CN1C(=O)N2O[C@H](F)C(=O)O` [Comparator 98, reference compound], for which the figures for the IC50 in assay [1] and in assay [2] were 1.3 nM and 2600 nM, respectively.

Regarding `O=C(O)C(F)ON1C(=O)N2C[C@H]1CC[C@H]2C(=O)NC1CCNCC1` (stereo partly shown) [Comparator 99, reference compound], the values for the IC50 in assay [1] and in assay [2] were 30 nM and 82000 nM, respectively.

Regarding `CC1=C[C@@H]2CN(C(=O)N2OC(F)(F)C(=O)O)[C@@H]1C(N)=O` [Example 8, {[(2S,5R)-2-carbamoyl-3-methyl-7-oxo-1,6-diazabicyclo[3.2.1]oct-3-en-6-yl]oxy}(difluoro)acetic acid lithium salt], the half-inhibitory concentration (IC50) is 1.5 nM in assay [1] and 14 nM in assay [2].

As to `CC1=C[C@@H]2CN(C(=O)N2OCC(=O)O)[C@@H]1C(N)=O` [Example 10, {[(2S,5R)-2-carbamoyl-3-methyl-7-oxo-1,6-diazabicyclo[3.2.1]oct-3-en-6-yl]oxy}acetic acid lithium salt], the IC50 in assay [1] was 430 nM; in assay [2] it was 51 nM.

Turning to `CC(=O)NNC(=O)[C@@H]1C(C)=C[C@@H]2CN1C(=O)N2OC(F)C(=O)O` (stereo partly drawn) [Example 27, 2-(((2S,5R)-2-(2-acetylhydrazinecarbonyl)-3-methyl-7-oxo-1,6-diazabicyclo[3.2.1]oct-3-en-6-yl)oxy)-2-fluoroacetic acid lithium salt], the IC50 is 47 nM in assay [1] and 18 nM in assay [2].

In the case of `CC1=C[C@@H]2CN(C(=O)N2OC(F)C(=O)O)[C@@H]1C(=O)NCc1cnccn1` (stereo partly drawn) [Example 30, 2-fluoro-2-(((2S,5R)-3-methyl-7-oxo-2-((pyrazin-2-ylmethyl)carbamoyl)-1,6-diazabicyclo[3.2.1]oct-3-en-6-yl)oxy)acetic acid lithium salt], the IC50 in assay [1] was found to be 81 nM; in assay [2], 140 nM.

With `NC(=O)[C@@H]1C(C2CC2)=C[C@@H]2CN1C(=O)N2O[C@H](F)C(=O)O` [Example 41, (2R)-2-(((2S,5R)-2-carbamoyl-3-cyclopropyl-7-oxo-1,6-diazabicyclo[3.2.1]oct-3-en-6-yl)oxy)-2-fluoroacetic acid lithium salt], the IC50 in assay [1] came out at 3.5 nM; in assay [2], 6.4 nM.

For `CC1=C[C@@H]2CN(C(=O)N2OC(F)C(=O)O)[C@@H]1c1nnc(C(N)=O)o1` (stereo partly drawn) [Example 55, 2-[[(2S,5R)-2-(5-carbamoyl-1,3,4-oxadiazol-2-yl)-3-methyl-7-oxo-1,6-diazabicyclo[3.2.1]oct-3-en-6-yl]oxy]-2-fluoro-acetic acid lithium salt], the half-maximal inhibitory concentration (IC50) in assay [1] came out at 24 nM; in assay [2], 7.3 nM.

On to `CC1=C[C@@H]2CN(C(=O)N2O[C@@H](F)C(=O)O)[C@@H]1C(=O)NOCCS(N)(=O)=O` [Example 56, (2S)-2-fluoro-2-[[(2S,5R)-3-methyl-7-oxo-2-(2-sulfamoylethoxycarbamoyl)-1,6-diazabicyclo[3.2.1]oct-3-en-6-yl]oxy]acetic acid lithium salt], for which the IC50 in assay [1] is 93 nM; in assay [2], 220 nM.

On to `CC1=C[C@@H]2CN(C(=O)N2O[C@@H](F)C(=O)O)[C@@H]1C(=O)NCCS(N)(=O)=O` [Example 57, (2S)-2-fluoro-2-[[(2S,5R)-3-methyl-7-oxo-2-(2-sulfamoylethylcarbamoyl)-1,6-diazabicyclo[3.2.1]oct-3-en-6-yl]oxy]acetic acid lithium salt], for which the figures for the half-inhibitory concentration (IC50) in assay [1] and in assay [2] were 57 nM and 410 nM, respectively.

Take `CC1=C[C@@H]2CN(C(=O)N2O[C@@H](F)C(=O)O)[C@@H]1C(=O)NOC[C@@H]1CC(F)(F)CN1` [Example 63, (2S)-2-(((2S,5R)-2-((((S)-4,4-difluoropyrrolidin-2-yl)methoxy)carbamoyl)-3-methyl-7-oxo-1,6-diazabicyclo[3.2.1]oct-3-en-6-yl)oxy)-2-fluoroacetic acid TFA salt]: the IC50 was 110 nM in assay [1] and 230 nM in assay [2].

As to `CC1=C[C@@H]2CN(C(=O)N2O[C@@H](F)C(=O)O)[C@@H]1C(=O)NC1COC1` [Example 66, (2S)-2-fluoro-2-[[(2S,5R)-3-methyl-2-(oxetan-3-ylcarbamoyl)-7-oxo-1,6-diazabicyclo[3.2.1]oct-3-en-6-yl]oxy]acetic acid lithium salt], the IC50 turned out to be 660 nM in assay [1] and 12 nM in assay [2].

Turning to `CC1=C[C@@H]2CN(C(=O)N2O[C@@H](F)C(=O)O)[C@@H]1C(=O)NCCNS(C)(=O)=O` [Example 67, (2S)-2-fluoro-2-[[(2S,5R)-2-[2-(methanesulfonamido)ethylcarbamoyl]-3-methyl-7-oxo-1,6-diazabicyclo[3.2.1]oct-3-en-6-yl]oxy]acetic acid lithium salt], the values for the IC50 in assay [1] and in assay [2] were 64 nM and 340 nM, respectively.

Regarding `CC1=C[C@@H]2CN(C(=O)N2O[C@@H](F)C(=O)O)[C@@H]1C(=O)NCc1ncco1` [Example 68, (2S)-2-fluoro-2-[[(2S,5R)-3-methyl-2-(oxazol-2-ylmethylcarbamoyl)-7-oxo-1,6-diazabicyclo[3.2.1]oct-3-en-6-yl]oxy]lacetic acid lithium salt], the 50% inhibitory concentration (IC50) in assay [1] amounted to 310 nM; in assay [2], 78 nM.

As for `CC1=C[C@@H]2CN(C(=O)N2O[C@@H](F)C(=O)O)[C@@H]1C(=O)NCc1cnccn1` [Example 69, (2S)-2-fluoro-2-[[(2S,5R)-3-methyl-7-oxo-2-(pyrazin-2-ylmethyl-carbamoyl)-1,6-diazabicyclo[3.2.1]oct-3-en-6-yl]oxy]acetic acid lithium salt], the concentration for half-maximal inhibition (IC50) is 180 nM in assay [1] and 110 nM in assay [2].

For `CC1=C[C@@H]2CN(C(=O)N2O[C@@H](F)C(=O)O)[C@@H]1C(=O)NOCC1CC1` [Example 70, (2S)-2-[[(2S,5R)-2-(cyclopropylmethoxycarbamoyl)-3-methyl-7-oxo-1,6-diazabicyclo[3.2.1]oct-3-en-6-yl]oxy]-2-fluoro-acetic acid lithium salt], the IC50 amounted to 26 nM in assay [1] and 87 nM in assay [2].

Take `CC1=C[C@@H]2CN(C(=O)N2O[C@@H](F)C(=O)O)[C@@H]1C(=O)NCCC(N)=O` [Example 71, (2S)-2-[[(2S,5R)-2-[(3-amino-3-oxo-propyl)carbamoyl]-3-methyl-7-oxo-1,6-diazabicyclo[3.2.1]oct-3-en-6-yl]oxy]-2-fluoro-acetic acid lithium salt]: the IC50 worked out at 110 nM in assay [1] and 75 nM in assay [2].

In the case of `CC1=C[C@@H]2CN(C(=O)N2O[C@@H](F)C(=O)O)[C@@H]1C(=O)NOC[C@@H]1CCC(=O)N1` [Example 72, (2S)-2-fluoro-2-[[(2S,5R)-3-methyl-7-oxo-2-[(5-oxopyrrolidin-2-yl)methoxycarbamoyl]-1,6-diazabicyclo[3.2.1]oct-3-en-6-yl]oxy]acetic acid lithium salt], the IC50 was determined as 77 nM in assay [1] and 110 nM in assay [2].

Turning to `CC1=C[C@@H]2CN(C(=O)N2O[C@@H](F)C(=O)O)[C@@H]1C(=O)NCC[C@@H]1CCC(=O)N1` [Example 73, (2S)-2-fluoro-2-[[(2S,5R)-3-methyl-7-oxo-2-[2-(5-oxopyrrolidin-2-yl)ethylcarbamoyl]-1,6-diazabicyclo[3.2.1]oct-3-en-6-yl]oxy]acetic acid lithium salt], the 50% inhibitory concentration (IC50) in assay [1] came to 730 nM; in assay [2] it was 530 nM.

Turning to `CC1=C[C@@H]2CN(C(=O)N2O[C@@H](F)C(=O)O)[C@@H]1C(=O)NCCCS(N)(=O)=O` [Example 74, (2S)-2-fluoro-2-[[(2S,5R)-3-methyl-7-oxo-2-(3-sulfamoylpropylcarbamoyl)-1,6-diazabicyclo[3.2.1]oct-3-en-6-yl]oxy]acetic acid lithium salt], the values for the IC50 in assay [1] and in assay [2] were 280 nM and 590 nM, respectively.

One may read the IC50 as the point on the concentration scale where inhibition reaches its midpoint.
